US9725432B2, “Pyrimidine derivatives for the treatment of bacterial diseases” (JANSSEN R&D IRELAND, priority 2012, dated 2017)
≈ marks a conversion by molar mass, not a printed value.

Tests used:
Staphylococcus aureus = experiment: Antibacterial susceptibility testing: IC90 determination (broth microdilution, resazurin fluorescence); assay type: cell-based; conditions: 90% inhibitory concentration for bacterial growth, Mueller Hinton broth, 35° C., 16-20 hours, strain not given
Experimental: Preparation of Bacterial Suspensions for Susceptibility Testing
The following bacteria were used: Staphylococcus aureus ATCC 29213, methicillin-resistant Staphylococcus aureus (MRSA) ATCC 700788 and Escherichia coli ATCC 35218. The bacteria used in this study were grown overnight in flasks containing 100 ml Mueller-Hinton broth (Difco cat. nr. 0757-17) in sterile de-ionized water, with shaking, at 37° C. Stocks were store at −70° C. until use.
Bacteria were incubated on a tryptic soy agar plate containing 5% sheep blood (Becton Dickinson cat. nr. 254053) for 18-24 hours at 35° C. in aerobic conditions (first passage). For the second passage, fresh Mueller-Hinton broth is inoculated with 5-10 colonies and grown overnight at 35° C. until turbidity (reaching log-phase) in aerobic conditions is reached. The bacterial suspension is then adjusted to 0.5 McFarland density and further diluted 1:100 in Mueller Hinton broth medium. This is used as inoculum.
Antibacterial Susceptibility Testing: IC90 Determination
MIC assays were performed by the broth microdilution method in a 96-well format (flat-bottom microtitre plates) with a final volume of 0.1 ml Mueller Hinton broth containing two-fold serial dilutions of compounds and inoculated with 5×10^5 CFU/ml of bacteria (standard inoculum size according to CLSI guidelines). Inhibitors are typically varied over the range of 63 to 0.49 μM. The final DMSO concentration in the assay was 1.25% (maximum tolerable DMSO concentration=6%). In the assays where the effect of human serum on the activity of the compounds against S. aureus was tested, human serum was added at a final concentration of 10%. The plates were incubated at 35° C. for 16-20 hours. At the end of incubation the bacterial growth was quantified fluorometrically. For this, resazurin was added to all wells and the plates were re-incubated. The incubation time is dependent on the type of bacteria. A change in color from blue to pink indicated the growth of bacteria. The fluorescence was read in computer-controlled fluorometer (Fluoroskan Ascent FL, Labsystems) at an excitation wavelength 540 nm and an emission wavelength of 590 nm. The % growth inhibition achieved by the compounds was calculated according to standard methods. The IC90 (expressed in μg/ml) was defined as the 90% inhibitory concentration for bacterial growth. A panel of reference compounds were simultaneously tested for QC approval.

Cytotoxicity MTT assay = assay type: cell-based; conditions: human, HelaM cells, concentration that causes 50% reduction in cell viability
Experimental: Cytotoxicity of the compounds was evaluated using the MTT assay. Human HelaM cells grown in 96-well plates were exposed to serial dilutions of the tested compounds (final volume of 0.2 ml) and incubated for 72 hours at 37° C. and 5% CO2 Inhibitors are typically varied over the range of 25 to 0.8 μM. The final DMSO concentration in the assay is 0.5%. MTT (3-(4,5-Dimethylthiazol-2-yl)-2,5-diphenyltetrazolium bromide, a tetrazole) was added and reduced to purple formazan only in living cells. Solubilization of the formazan crystals was achieved by adding 100 μl 2-propanol. Cell viability was determined by measuring the absorbance of the reduced formazan, giving a purple color, at 540 nm and 690 nm. The absorbance measured at 690 nm was automatically subtracted from the absorbance at 540 nm, to eliminate the effects of non-specific absorption. The percent cytotoxicity achieved by the compounds was calculated according to standard methods. Cytotoxicity is reported as CC50, the concentration that causes a 50% reduction in cell viability.

| SMILES | IC90 (Staphylococcus aureus) [µg/mL] | melting point [°C] | CC50 at 72 h (Cytotoxicity MTT assay) [µg/mL] |
| --- | --- | --- | --- |
| COc1cccc(-c2cnc(-c3ccncc3)nc2C2CCN(Cc3ccc(C)cc3)CC2)c1 [Compound 35] | 13.3 (≈ 29.5 µM) | 141 | 7.7 (≈ 17.1 µM) |
| COc1cccc(-c2cnc(-c3ccncc3)nc2C2CCN(Cc3ccsc3)CC2)c1 [Compound 4] | 12.9 (≈ 29.2 µM) | 135 | > 11.1 |
| C/C=C(\C)CN1CCC(c2nc(-c3ccncc3)ncc2-c2cccc(OC)c2)CC1 [Compound 2] | 13.7 (≈ 33.1 µM) |  |  |
| COc1cccc(-c2cnc(-c3ccncc3)nc2C2CCN(Cc3cccc(C)c3)CC2)c1 [Compound 33] | 13.2 (≈ 29.2 µM) | 160 | 7.6 (≈ 16.9 µM) |
| Cc1cccc(-c2cnc(-c3ccncc3)nc2C2CCN(Cc3cccc(F)c3)CC2)c1 [Compound 14] | 9.16 (≈ 20.9 µM) | 195 to 196 | > 11 |
| CC(C)(C)CN1CCC(c2nc(-c3ccncc3)ncc2-c2cccc(C(F)(F)F)c2)CC1 [Compound 40] | 0.52 (≈ 1.14 µM) | 112 to 114 | 7 (≈ 15.4 µM) |
| COc1cccc(-c2cnc(-c3ccncc3)nc2C2CCN(Cc3ccc(F)cc3)CC2)c1 [Compound 29] | 3.45 (≈ 7.59 µM) | 152 | 8.5 (≈ 18.7 µM) |
| COc1cccc(-c2cnc(-c3ccncc3)nc2C2CCN(Cc3cc(Cl)ccc3O)CC2)c1 [Compound 5] | 2.1 (≈ 4.31 µM) | 227 to 228 | 6.3 (≈ 12.9 µM) |
| COc1cccc(-c2cnc(-c3ccncc3)nc2C2CCN(Cc3ccccc3O)CC2)c1 [Compound 10] | 1.68 (≈ 3.71 µM) | 142 to 146 | 9.9 (≈ 21.9 µM) |
| COc1cccc(-c2cnc(-c3ccncc3)nc2C2CCN(C(=O)C(C)Oc3ccccc3)CC2)c1 (stereo not shown) [Compound 20] | 7.15 (≈ 14.5 µM) |  | 8.1 (≈ 16.4 µM) |
| CC(C)(C)CN1CCC(c2nc(C(F)(F)F)ncc2-c2cccc(C#N)c2)CC1 [Compound 64] | 1.46 (≈ 3.63 µM) | 114 to 116 | > 10.1 |
| COc1cccc(-c2cnc(-c3ccncc3)nc2C2CCN(Cc3ccccc3C(F)(F)F)CC2)c1 [Compound 46] | 4.1 (≈ 8.13 µM) | 144 | 4.2 (≈ 8.32 µM) |
| COc1cccc(-c2cnc(-c3ccncc3)nc2C2CCN(Cc3ccc(F)c(F)c3)CC2)c1 [Compound 43] | 2.24 (≈ 4.74 µM) | 158 | 6.2 (≈ 13.1 µM) |
| COc1cccc(-c2cnc(-c3ccncc3)nc2C2CCN(Cc3sccc3C)CC2)c1 [Compound 1] | 8.5 (≈ 18.6 µM) |  |  |
| COc1cccc(-c2cnc(-c3ccncc3)nc2C2CCN(CC(C)(F)F)CC2)c1 [Compound 70] | 0.64 (≈ 1.51 µM) |  | 6.7 (≈ 15.8 µM) |
| COc1cccc(-c2cnc(-c3ccncc3)nc2C2CCN(CC(F)F)CC2)c1 [Compound 56] | 1.49 (≈ 3.63 µM) | 123 | > 10.3 |
| C#CCN1CCC(c2nc(-c3ccncc3)ncc2-c2cccc(OC)c2)CC1 [Compound 49] | 12.2 (≈ 31.6 µM) | 160 | > 9.7 |
| COc1cccc(-c2cnc(-c3ccncc3)nc2C2CCN(Cc3cccc(Cl)c3)CC2)c1 [Compound 45] | 3.49 (≈ 7.41 µM) | 133 | 4.9 (≈ 10.4 µM) |
| Cc1cccc(-c2cnc(-c3ccncc3)nc2C2CCN(Cc3cc(Cl)ccc3O)CC2)c1 [Compound 13] | 1.71 (≈ 3.63 µM) | 180 to 181 | 5.2 (≈ 11 µM) |
| CC(C)(C)CN1CCC(c2nc(C3CC3)ncc2-c2cccc(C#N)c2)CC1 [Compound 63] | 2.74 (≈ 7.32 µM) | 125 to 126 | > 9.4 |
| COc1cccc(-c2cnc(-c3ccncc3)nc2C2CCN(Cc3ccc(Cl)cc3O)CC2)c1 [Compound 9] | 0.97 (≈ 1.99 µM) | 119 to 123 | 5.9 (≈ 12.1 µM) |
| COc1cccc(-c2cnc(-c3ccncc3)nc2C2CCN(Cc3ccccc3F)CC2)c1 [Compound 41] | 8.66 (≈ 19.1 µM) | 139 | 7.7 (≈ 16.9 µM) |
| COc1cccc(-c2cnc(-c3ccncc3)nc2N2CCC(c3ccccc3)CC2)c1 [Compound 26] | 7.51 (≈ 17.8 µM) | 157 to 159 | 5.7 (≈ 13.5 µM) |
| COc1cccc(-c2cnc(-c3ccncc3)nc2C2CCN(CC(F)(F)F)CC2)c1 [Compound 55] | 0.39 (≈ 0.91 µM) |  | 6.3 (≈ 14.7 µM) |
| COc1ccc(-c2cnc(N(C)C)nc2C2CCN(CC(C)(C)C)CC2)cc1 [Compound 53] | 5.47 (≈ 14.3 µM) |  | 7.5 (≈ 19.6 µM) |
| CN(C)c1ncc(-c2cccc(Cl)c2)c(C2CCN(CC(C)(C)C)CC2)n1 [Compound 52] | 1.28 (≈ 3.31 µM) |  | 6.7 (≈ 17.3 µM) |
| Oc1ccccc1CN1CCC(c2nc(-c3cccnc3)ncc2-c2ccccc2)CC1 [Compound 7] | 14.3 (≈ 33.9 µM) |  |  |
| CN(C)c1ncc(-c2ccccc2F)c(C2CCN(CC(C)(C)C)CC2)n1 [Compound 51] | 13.4 (≈ 36.3 µM) |  | 7.8 (≈ 21.1 µM) |
| COc1cccc(-c2cnc(-c3ccc(F)cc3)nc2C2CCN(CC(F)(F)F)CC2)c1 [Compound 71] | < 0.22 |  |  |

Now from value to compound, other results behind:

| IC90 (Staphylococcus aureus) [µg/mL] | melting point [°C] | SMILES | CC50 at 72 h (Cytotoxicity MTT assay) [µg/mL] |
| --- | --- | --- | --- |
| 9.61 (≈ 24 µM) | 208 | Cc1ccccc1-c1cnc(-c2ccncc2)nc1C1CCN(CC(C)(C)C)CC1 [Compound 50] | > 4 |
| 5.5 (≈ 12.6 µM) | 149 to 151 | Cc1cccc(-c2cnc(-c3ccncc3)nc2C2CCN(Cc3ccccc3O)CC2)c1 [Compound 8] | > 4.4 |
| 5.28 (≈ 10.5 µM) | 156 | COc1cccc(-c2cnc(-c3ccncc3)nc2C2CCN(Cc3cccc(C(F)(F)F)c3)CC2)c1 [Compound 28] | 4.7 (≈ 9.32 µM) |
| 5.19 (≈ 12 µM) | 137 to 138 | COc1cccc(-c2cnc(-c3ccncc3)nc2NC2CCN(CC(C)(C)C)CC2)c1 [Compound 30] | 8.8 (≈ 20.4 µM) |
| 1.68 (≈ 4.03 µM) | 222 to 224 | COc1cccc(-c2cnc(-c3cccnc3)nc2C2CCN(CC(C)(C)C)CC2)c1 [Compound 24] | > 11.4 |
| 2.98 (≈ 7.15 µM) | 154 to 156 | COc1ccc(-c2cnc(-c3ccncc3)nc2C2CCN(CC(C)(C)C)CC2)cc1 [Compound 36] | > 10.5 |
| 5.16 (≈ 10.1 µM) | 106 to 108 | COc1cccc(-c2cnc(-c3ccncc3)nc2N2CCC(NC(=O)C(C)Oc3ccccc3)CC2)c1 (stereo not shown) [Compound 22] | 8.5 (≈ 16.7 µM) |
| 3.16 (≈ 6.69 µM) | 181 | COc1cccc(-c2cnc(-c3ccncc3)nc2C2CCN(Cc3cc(F)cc(F)c3)CC2)c1 [Compound 48] | 2.2 (≈ 4.66 µM) |
| 3.27 (≈ 7.59 µM) | 165 | COc1cccc(-c2cnc(-c3ccncc3)nc2C2CCN(C(=O)C(C)(C)C)CC2)c1 [Compound 25] | > 10.8 |
| > 26.7 | 163 to 164 | N#Cc1cccc(-c2cnc(-c3ccncc3)nc2C2CCCN(CC(F)(F)F)C2)c1 (stereo not shown) [Compound 59] | > 10.6 |
| 1.49 (≈ 3.72 µM) | 123 to 127 | Cc1cccc(-c2cnc(-c3ccncc3)nc2C2CCN(CC(C)(C)C)CC2)c1 [Compound 15] | > 10.1 |
| 1.05 (≈ 2.52 µM) | 118 | COc1cccc(-c2cnc(-c3ccncc3)nc2C2CCN(CC(C)(C)C)CC2)c1 [Compound 6] | > 10.5 |
| 0.13 (≈ 0.298 µM) | 247 to 249 | CC(C)(C)CN1CCC(c2nc(-c3ccc(C#N)cc3)ncc2-c2cccc(C#N)c2)CC1 [Compound 65] | > 4.4 |
| 0.69 (≈ 1.63 µM) | 168 to 172 | N#Cc1cccc(-c2cnc(-c3ccncc3)nc2C2CCN(CC(F)(F)F)CC2)c1 [Compound 58] | > 10.6 |
| 25.9 (≈ 61 µM) |  | CC1(CN2CCC(c3nc(-c4ccncc4)ncc3-c3cccc(C#N)c3)CC2)COC1 [Compound 72] |  |
| > 25.9 |  | CC(C)(C)CN1CCCC(c2nc(-c3ccncc3)ncc2-c2cccc(C#N)c2)C1 (stereo not shown) [Compound 61] | > 10.3 |
